The values below come from patent US10647745B2, “Compound for treating sequelae of ischemic cerebral stroke” (priority 2015, dated 2020).

Residues, ends and D or L forms follow the SMILES beside them.

Assay [1] is described as follows: Body weight of rats in 1.5-hour ischemia/reperfusion model. It counts as in vivo, Sprague-Dawley (SD) rats. To be noted: 3.6 mg/kg i.p. once a day. Here is the method:
(§1) Sprague-Dawley (SD) rats, male, weighing 280-320 g, clean, feeding, conditions: room temperature of 20-25° C., humidity of 30-60%, well ventilated, ad libitum diet; the animals were acclimatized in the feeding environment for three days prior to the experiment.
(§2) The rats were anesthetized with 4% chloral hydrate (350 mg/kg, ip.) and then were fixed in a supine position. A midline ventral neck incision was made, the right common carotid artery was separated and snared with two sutures for further use. Then, the internal carotid artery and external carotid artery were separated, and the external carotid artery was ligatured. The separated common carotid artery was ligatured at its proximal end with a thread, and the blood flow of the same was blocked at its distal end with a bulldog clamp. A small opening was cut therebetween and a nylon suture (4-0) which is heated at one end into a bead-like shape (having a diameter of <0.3 mm) was inserted into the small opening. The bulldog clamp was removed, and the nylon suture was gently advanced to the origin of the anterior cerebral artery (18-20 mm), thereby causing arterial ischemia in brain by blocking the blood supply of the cerebral artery. The skin was sutured and was sterilized with tincture of iodine. […]

In assay [2] the test system is right cerebral artery ischemia/reperfusion model in rats. Nature of the assay: Neurologic deficit score in rat 1.5-hour ischemia/reperfusion model. It counts as in vivo, Sprague-Dawley (SD) rats. To be noted: 3.6 mg/kg i.p. once a day, vs model group without compound. Here is the method: as §1
as §2, with “opening.” for “opening. The bulldog clamp was removed, and the nylon suture was gently advanced to the origin of the anterior cerebral artery (18-20 mm), thereby causing arterial ischemia in brain by blocking the blood supply of the cerebral artery. The skin was sutured and was sterilized with tincture of iodine.”
Neurologic deficit scores were assessed for the above experimental animals according to the following procedure before the beginning of experiment and 24 hours, 1 day, 3 days, 7 days, 14 days, 28 days, 56 days, and 112 days after the beginning of experiment; Score rules: see Zea Longer score and NSS score, full score of 10; […]

Take `CC(C)CC(NC(=O)C(CCC(N)=O)NC(=O)C(NC(=O)C(CO)NC(=O)C(Cc1c[nH]cn1)NC(=O)C(N)C(C)C)C(C)C)C(=O)NC(Cc1ccc(O)cc1)C(=O)O` (stereo not shown) [compound of formula (III)] (H-VHSVQLY-OH; configuration not given here): the weight result is given as “gradually increased weight” in assay [1] (I1.5R+1 week+dosing for 4 weeks, vs model group without compound) and “gradually increased weight” in assay [1] (I1.5R+2 weeks+dosing for 4 weeks, vs model group, weight data said not demonstrative (groups differed before dosing)). Besides, in assay [2] (I1.5R+1 week+dosing for 4 weeks, statistically significant in 2nd, 3rd, 4th, 5th and 7th week after operation), the “neuroethology score (neurologic deficit score)” value is “gradually declined neuroethology score”. Further, the neurological scores entry in assay [2] (I1.5R+2 weeks+dosing for 4 weeks, statistically significant at fifth week after operation) is recorded as “declined from the beginning of the administration”.
